Laboratory results reported in patent US7888386B2, “3-(phenoxyphenylmethyl)pyrrolidine compounds” (Theravance, Inc., priority 2008, dated 2011).
Where two headings read alike, the source gives them in different places.

Key:
[1] = Thermal analysis (DSC) of crystalline salt; assay type: physicochemical; details: crystalline monohydrochloride salt, heating ramp 10° C./min
Procedure: Differential scanning calorimetry (DSC) was performed using a TA Instruments Model Q-100 module with a Thermal Analyst controller. Data were collected and analyzed using TA Instruments Thermal Solutions software. A 1.64 mg sample of the crystalline form of Example 2 was accurately weighed into a covered aluminum pan. After a 5 minute isothermal equilibration period at 22° C., the sample was heated using a linear heating ramp of 10° C./min from 22° C. to 250° C.

hNET = molecular target: T1, hNET (Homo sapiens, UniProt P23975); assay: hNET binding assay (Assay 1); details: read-out: NET pKi (converted)
T1 construct: expressed in transfected cells; host or cells: HEK-293 derived cell line, stably transfected; membrane preparation
T1 sequence (P23975 whole entry): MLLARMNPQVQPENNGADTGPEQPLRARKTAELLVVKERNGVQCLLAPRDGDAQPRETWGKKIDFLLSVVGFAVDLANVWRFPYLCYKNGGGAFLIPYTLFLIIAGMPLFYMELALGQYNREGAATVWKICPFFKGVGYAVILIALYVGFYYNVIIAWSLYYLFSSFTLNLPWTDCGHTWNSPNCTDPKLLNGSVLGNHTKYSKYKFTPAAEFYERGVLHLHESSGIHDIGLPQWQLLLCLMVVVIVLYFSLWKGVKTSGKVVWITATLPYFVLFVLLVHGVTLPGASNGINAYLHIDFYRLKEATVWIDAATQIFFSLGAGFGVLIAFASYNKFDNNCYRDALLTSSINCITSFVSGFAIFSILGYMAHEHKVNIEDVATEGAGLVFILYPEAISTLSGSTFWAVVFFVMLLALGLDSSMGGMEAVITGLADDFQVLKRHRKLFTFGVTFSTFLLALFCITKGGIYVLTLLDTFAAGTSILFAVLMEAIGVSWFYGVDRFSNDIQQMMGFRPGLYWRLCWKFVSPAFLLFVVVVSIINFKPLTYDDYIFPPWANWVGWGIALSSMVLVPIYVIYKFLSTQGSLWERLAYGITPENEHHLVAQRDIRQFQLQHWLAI
In short: (§1)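 Membranes from HEK-293 cells stably expressing human NET or SERT competed test compound against ^3H-nisoxetine (hNET) or ^3H-citalopram (hSERT). Buffer was 50 mM Tris-HCl pH 7.4, 120 mM NaCl, 5 mM KCl, 0.1% BSA and 400 μM ascorbic acid.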

hSERT = molecular target: T2, hSERT (Homo sapiens, UniProt P31645); assay: hSERT binding assay (Assay 1)
T2 construct: expressed in transfected cells; host or cells: HEK-293 derived cell line, stably transfected; membrane preparation
T2 sequence (P31645 whole entry): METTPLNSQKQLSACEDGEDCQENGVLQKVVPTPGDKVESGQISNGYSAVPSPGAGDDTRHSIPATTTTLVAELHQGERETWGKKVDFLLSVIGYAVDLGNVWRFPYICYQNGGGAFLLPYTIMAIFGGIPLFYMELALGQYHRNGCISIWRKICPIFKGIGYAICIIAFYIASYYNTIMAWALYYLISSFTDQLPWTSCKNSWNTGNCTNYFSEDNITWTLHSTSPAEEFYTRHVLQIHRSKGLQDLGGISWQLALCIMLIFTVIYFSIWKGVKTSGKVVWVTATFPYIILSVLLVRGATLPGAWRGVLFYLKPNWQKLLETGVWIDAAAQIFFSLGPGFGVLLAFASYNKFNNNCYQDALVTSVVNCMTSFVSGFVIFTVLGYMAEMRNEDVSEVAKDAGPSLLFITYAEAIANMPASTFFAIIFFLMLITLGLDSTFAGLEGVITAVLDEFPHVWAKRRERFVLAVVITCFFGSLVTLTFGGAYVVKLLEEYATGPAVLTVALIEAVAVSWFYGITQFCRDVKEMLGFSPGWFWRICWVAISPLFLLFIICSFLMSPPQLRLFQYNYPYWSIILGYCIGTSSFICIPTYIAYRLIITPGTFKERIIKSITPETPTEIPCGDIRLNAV
In short: as §1

[2] = hNET binding, the tables list only compounds with NET pKi≧8
[3] = ratio of binding Ki at SERT to Ki at NET, the tables list only compounds with a ratio in the range 0.1-100
[4] = membranes of HEK-293 cells expressing hNET, 1.0 nM 3H-nisoxetine
[5] = ratio of binding Ki at hSERT to Ki at hNET, rounded off to the nearest tenth

## Fc1ccc(F)c(O[C@H](c2ccccc2)[C@@H]2CCNC2)c1Cl [Ex. 14, (R)-3-[(S)-(2-chloro-3,6-difluorophenoxy)phenyl-methyl]pyrrolidine]
[1]
  no thermal decomposition below (DSC): ≥ 160 °C

## Fc1cc(F)c(Cl)c(O[C@@H](c2ccccc2)[C@H]2CCNC2)c1Cl [Ex. 11, (S)-3-[(R)-(2,6-dichloro-3,5-difluorophenoxy)phenylmethyl]pyrrolidine]
[1]
  no thermal decomposition below (DSC): ≥ 190.7 °C

## Clc1cc(Cl)cc(O[C@H](c2ccccc2)[C@@H]2CCNC2)c1 [Ex. 16, (R)-3-[(S)-(3,5-Dichlorophenoxy)phenylmethyl]pyrrolidine]
[1]
  no thermal decomposition below (DSC): ≥ 220 °C

## Fc1ccc(Cl)c(F)c1OC(c1ccccc1)C1CCNC1 (stereo not shown) [40-14]
hNET; hNET binding
  Ki: 0.501 nM
hSERT; ratio of SERT Ki to NET Ki (binding)
  SERT Ki/NET Ki: 0.4

## Cc1cc(F)cc(C(Oc2ccc(Cl)cc2F)C2CCNC2)c1 (stereo not shown) [28-13]
hNET; hNET binding assay
  Ki: 5.01 nM
hSERT; ratio of SERT Ki to NET Ki from binding assays
  SERT Ki/NET Ki: 0.5

## Fc1cc(F)cc([C@H](Oc2c(F)cc(F)cc2F)[C@H]2CCNC2)c1 [45-1]
hNET; [2]
  Ki: 3.98 nM
hSERT; [3]
  SERT Ki/NET Ki: 7.9

## COc1ccccc1OC(c1cc(F)cc(Cl)c1)C1CCNC1 (stereo not shown) [Compound 20-35]
hNET; [4]
  Ki: 0.631 nM
hSERT; [5]
  SERT Ki/NET Ki: 16

## Fc1cc(Cl)cc(F)c1O[C@@H](c1ccccc1)[C@H]1CCNC1 [44-9]
hNET; [2]
  Ki: 2.51 nM
hSERT; [3]
  SERT Ki/NET Ki: 0.1

## Clc1cccc(C(Oc2ccccc2Cl)C2CCNC2)c1 (stereo not shown) [Compound 20-5]
hNET; [4]
  Ki: 2.51 nM
hSERT; [5]
  SERT Ki/NET Ki: 1.6

## Fc1cc(Cl)cc(F)c1OC(c1ccccc1)C1CCNC1 (stereo not shown) [44-8]
hNET; [2]
  Ki: 3.98 nM
hSERT; [3]
  SERT Ki/NET Ki: 0.1

## Fc1c(Oc2ccccc2)cccc1OC(c1ccccc1)C1CCNC1 (stereo not shown) [Compound 25-8]
hNET; [4]
  Ki: 2.51 nM
hSERT; [5]
  SERT Ki/NET Ki: 1.3
